The text below walks through data of ChEMBL document CHEMBL5291721, “A preclinical secondary pharmacology resource illuminates target-adverse drug reaction associations of marketed drugs” (Nat Commun, 2023).

The target in one experiment is T1, Adenosine receptor A3 (Homo sapiens, UniProt P0DMS8).
T1 sequence (P0DMS8 whole entry): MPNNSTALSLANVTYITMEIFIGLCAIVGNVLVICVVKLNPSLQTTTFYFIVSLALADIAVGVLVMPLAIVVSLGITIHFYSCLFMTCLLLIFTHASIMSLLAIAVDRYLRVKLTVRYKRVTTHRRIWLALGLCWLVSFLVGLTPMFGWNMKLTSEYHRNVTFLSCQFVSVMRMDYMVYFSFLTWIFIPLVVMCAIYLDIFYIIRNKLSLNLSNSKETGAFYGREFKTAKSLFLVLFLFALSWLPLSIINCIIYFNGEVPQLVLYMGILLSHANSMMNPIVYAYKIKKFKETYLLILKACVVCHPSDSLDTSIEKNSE

The target of experiment [1] is Gamma-aminobutyric acid receptor subunit alpha-1/alpha-2/beta-2/gamma-2 (Homo sapiens, UniProt P14867+P18507+P47869+P47870). The format is protein-complex assay.
In experiment [2] the target is T2, Muscarinic acetylcholine receptor M1 (Homo sapiens, UniProt P11229).
T2 sequence (P11229 whole entry): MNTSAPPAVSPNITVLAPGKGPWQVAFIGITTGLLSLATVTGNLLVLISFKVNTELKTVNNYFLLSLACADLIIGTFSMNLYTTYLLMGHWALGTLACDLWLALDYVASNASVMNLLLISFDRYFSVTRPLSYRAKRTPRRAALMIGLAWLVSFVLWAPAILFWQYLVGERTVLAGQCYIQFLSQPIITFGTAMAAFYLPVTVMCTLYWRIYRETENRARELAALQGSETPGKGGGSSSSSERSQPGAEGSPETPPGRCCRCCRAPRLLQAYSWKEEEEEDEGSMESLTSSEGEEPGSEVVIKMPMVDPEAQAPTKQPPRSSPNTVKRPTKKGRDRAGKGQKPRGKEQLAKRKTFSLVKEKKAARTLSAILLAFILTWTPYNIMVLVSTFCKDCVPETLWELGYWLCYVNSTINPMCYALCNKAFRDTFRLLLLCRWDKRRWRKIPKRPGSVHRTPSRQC
Format: functional, cell-based.

Experiment [3] deals with T2, Muscarinic acetylcholine receptor M1. Format: functional, cell-based. The source holds these as a separate data set.
Experiment [4] concerns the target 5-hydroxytryptamine receptor 2A (Homo sapiens, UniProt P28223). The format is functional, cell-based.
Experiment [5] concerns the target Sodium-dependent noradrenaline transporter (Homo sapiens, UniProt P23975).
The target of experiment [6] is Gamma-aminobutyric acid receptor subunit alpha-1 (Rattus norvegicus, UniProt P62813).
For a further experiment, the target named is D(1A) dopamine receptor (Homo sapiens, UniProt P21728). The format is functional, cell-based.
Experiment [7] addresses Delta-type opioid receptor (Homo sapiens, UniProt P41143).
For experiment [8], the target named is T3, Alpha-2A adrenergic receptor (Homo sapiens, UniProt P08913).
T3 sequence (P08913 whole entry): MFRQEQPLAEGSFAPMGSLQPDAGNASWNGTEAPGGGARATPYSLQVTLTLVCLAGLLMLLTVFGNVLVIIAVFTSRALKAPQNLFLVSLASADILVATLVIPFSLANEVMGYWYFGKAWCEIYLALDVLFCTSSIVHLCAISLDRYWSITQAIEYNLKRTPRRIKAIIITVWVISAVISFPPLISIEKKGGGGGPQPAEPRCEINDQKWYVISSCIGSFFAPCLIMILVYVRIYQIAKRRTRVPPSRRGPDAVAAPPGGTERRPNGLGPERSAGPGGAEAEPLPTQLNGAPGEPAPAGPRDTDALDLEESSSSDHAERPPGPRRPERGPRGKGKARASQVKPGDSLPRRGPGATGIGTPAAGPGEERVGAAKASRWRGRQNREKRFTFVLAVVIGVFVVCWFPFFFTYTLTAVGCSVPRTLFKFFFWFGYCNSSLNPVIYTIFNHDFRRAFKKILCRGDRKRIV
Format: functional, cell-based.

A further experiment addresses Histamine H2 receptor (Homo sapiens, UniProt P25021). Format: functional, cell-based.
Also: assay procedure not described here.

Gamma-aminobutyric acid receptor subunit alpha-1, sequence (P62813 whole entry): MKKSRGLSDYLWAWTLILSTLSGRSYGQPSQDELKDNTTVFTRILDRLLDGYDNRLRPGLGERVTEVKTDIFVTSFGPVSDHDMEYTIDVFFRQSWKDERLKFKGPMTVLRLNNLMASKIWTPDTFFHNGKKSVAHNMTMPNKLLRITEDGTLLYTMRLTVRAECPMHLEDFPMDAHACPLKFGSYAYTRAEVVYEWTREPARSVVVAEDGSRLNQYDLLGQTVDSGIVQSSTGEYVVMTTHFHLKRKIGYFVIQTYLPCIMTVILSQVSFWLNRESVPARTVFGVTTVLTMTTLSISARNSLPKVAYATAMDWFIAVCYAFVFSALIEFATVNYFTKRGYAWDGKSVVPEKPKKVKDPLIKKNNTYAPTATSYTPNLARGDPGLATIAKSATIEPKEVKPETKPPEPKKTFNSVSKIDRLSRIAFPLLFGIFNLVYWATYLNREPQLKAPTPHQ
Gamma-aminobutyric acid receptor subunit alpha-1/alpha-2/beta-2/gamma-2, sequence (P14867 whole entry): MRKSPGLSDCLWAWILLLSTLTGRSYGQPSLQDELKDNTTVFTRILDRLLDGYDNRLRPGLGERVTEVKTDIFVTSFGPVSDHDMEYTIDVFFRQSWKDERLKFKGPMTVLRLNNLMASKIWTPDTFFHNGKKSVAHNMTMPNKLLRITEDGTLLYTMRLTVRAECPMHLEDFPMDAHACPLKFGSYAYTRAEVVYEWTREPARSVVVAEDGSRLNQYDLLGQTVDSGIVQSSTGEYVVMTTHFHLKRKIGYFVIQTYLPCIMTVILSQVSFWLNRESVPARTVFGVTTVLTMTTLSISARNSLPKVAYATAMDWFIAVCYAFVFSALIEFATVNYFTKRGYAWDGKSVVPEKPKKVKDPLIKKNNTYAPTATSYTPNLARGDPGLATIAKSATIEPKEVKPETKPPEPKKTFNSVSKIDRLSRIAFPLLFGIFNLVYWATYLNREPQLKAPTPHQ
Gamma-aminobutyric acid receptor subunit alpha-1/alpha-2/beta-2/gamma-2, sequence (P47870 whole entry): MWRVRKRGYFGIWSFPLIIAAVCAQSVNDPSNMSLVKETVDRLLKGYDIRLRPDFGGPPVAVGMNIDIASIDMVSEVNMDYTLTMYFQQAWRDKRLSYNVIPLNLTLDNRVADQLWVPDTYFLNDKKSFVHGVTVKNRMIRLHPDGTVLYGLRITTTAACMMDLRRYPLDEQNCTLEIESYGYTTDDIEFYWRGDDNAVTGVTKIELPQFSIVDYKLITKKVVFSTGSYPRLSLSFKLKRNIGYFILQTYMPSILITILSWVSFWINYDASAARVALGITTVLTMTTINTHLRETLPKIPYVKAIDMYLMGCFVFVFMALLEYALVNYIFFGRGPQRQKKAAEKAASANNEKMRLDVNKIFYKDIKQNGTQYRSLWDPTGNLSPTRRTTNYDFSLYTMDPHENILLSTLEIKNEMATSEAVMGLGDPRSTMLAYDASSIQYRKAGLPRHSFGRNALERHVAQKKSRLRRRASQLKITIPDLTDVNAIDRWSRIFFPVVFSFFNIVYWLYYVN
Gamma-aminobutyric acid receptor subunit alpha-1/alpha-2/beta-2/gamma-2, sequence (P18507 whole entry): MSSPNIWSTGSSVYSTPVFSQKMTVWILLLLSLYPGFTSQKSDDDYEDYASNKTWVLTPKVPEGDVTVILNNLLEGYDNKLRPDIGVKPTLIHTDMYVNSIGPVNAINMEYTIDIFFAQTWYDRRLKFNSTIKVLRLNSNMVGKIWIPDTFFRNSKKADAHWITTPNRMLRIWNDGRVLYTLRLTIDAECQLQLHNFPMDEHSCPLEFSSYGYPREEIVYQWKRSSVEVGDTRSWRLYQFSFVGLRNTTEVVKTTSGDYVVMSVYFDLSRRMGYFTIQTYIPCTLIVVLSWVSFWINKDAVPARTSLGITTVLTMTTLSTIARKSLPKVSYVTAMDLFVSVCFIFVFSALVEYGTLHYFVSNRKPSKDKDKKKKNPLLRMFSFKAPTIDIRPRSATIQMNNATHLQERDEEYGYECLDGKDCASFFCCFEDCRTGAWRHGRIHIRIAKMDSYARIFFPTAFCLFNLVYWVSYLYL
Gamma-aminobutyric acid receptor subunit alpha-1/alpha-2/beta-2/gamma-2, sequence (P47869 whole entry): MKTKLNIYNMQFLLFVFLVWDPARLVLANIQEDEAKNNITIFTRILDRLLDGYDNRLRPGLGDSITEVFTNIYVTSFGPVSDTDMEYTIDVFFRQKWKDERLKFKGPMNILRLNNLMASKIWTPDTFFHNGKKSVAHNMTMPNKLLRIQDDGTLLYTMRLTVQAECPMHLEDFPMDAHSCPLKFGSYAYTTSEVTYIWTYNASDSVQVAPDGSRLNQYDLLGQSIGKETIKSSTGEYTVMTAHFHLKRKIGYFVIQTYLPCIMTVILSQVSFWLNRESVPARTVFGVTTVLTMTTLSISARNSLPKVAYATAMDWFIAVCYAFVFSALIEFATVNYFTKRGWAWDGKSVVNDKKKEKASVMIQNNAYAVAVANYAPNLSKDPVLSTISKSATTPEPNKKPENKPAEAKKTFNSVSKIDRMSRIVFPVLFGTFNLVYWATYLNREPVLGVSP
Sodium-dependent noradrenaline transporter, sequence (P23975 whole entry): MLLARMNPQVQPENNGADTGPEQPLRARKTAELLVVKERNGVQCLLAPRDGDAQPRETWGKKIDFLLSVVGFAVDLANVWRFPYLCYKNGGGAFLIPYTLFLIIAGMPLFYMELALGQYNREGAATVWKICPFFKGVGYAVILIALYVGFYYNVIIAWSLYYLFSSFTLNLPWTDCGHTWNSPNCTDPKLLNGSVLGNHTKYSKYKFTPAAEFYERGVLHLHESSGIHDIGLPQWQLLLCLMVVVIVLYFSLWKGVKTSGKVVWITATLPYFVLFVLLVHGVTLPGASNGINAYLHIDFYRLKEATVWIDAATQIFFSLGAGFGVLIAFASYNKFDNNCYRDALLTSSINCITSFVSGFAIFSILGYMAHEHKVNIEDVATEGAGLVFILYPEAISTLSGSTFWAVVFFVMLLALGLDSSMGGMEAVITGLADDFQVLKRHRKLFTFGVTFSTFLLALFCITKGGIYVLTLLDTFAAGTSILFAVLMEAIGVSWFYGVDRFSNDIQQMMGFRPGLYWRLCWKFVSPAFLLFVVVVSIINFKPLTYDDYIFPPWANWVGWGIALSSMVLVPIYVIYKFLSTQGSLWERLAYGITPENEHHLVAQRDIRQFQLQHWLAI
Delta-type opioid receptor, sequence (P41143 whole entry): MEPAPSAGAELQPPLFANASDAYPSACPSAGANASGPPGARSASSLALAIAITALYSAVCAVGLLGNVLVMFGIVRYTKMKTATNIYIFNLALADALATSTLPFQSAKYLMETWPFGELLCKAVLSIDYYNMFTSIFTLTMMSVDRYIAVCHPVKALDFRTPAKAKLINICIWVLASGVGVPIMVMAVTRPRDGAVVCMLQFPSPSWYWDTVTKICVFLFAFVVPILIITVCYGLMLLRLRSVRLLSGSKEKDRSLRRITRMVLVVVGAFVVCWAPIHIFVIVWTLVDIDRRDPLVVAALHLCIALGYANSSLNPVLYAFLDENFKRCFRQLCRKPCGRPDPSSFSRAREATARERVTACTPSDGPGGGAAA
D(1A) dopamine receptor, sequence (P21728 whole entry): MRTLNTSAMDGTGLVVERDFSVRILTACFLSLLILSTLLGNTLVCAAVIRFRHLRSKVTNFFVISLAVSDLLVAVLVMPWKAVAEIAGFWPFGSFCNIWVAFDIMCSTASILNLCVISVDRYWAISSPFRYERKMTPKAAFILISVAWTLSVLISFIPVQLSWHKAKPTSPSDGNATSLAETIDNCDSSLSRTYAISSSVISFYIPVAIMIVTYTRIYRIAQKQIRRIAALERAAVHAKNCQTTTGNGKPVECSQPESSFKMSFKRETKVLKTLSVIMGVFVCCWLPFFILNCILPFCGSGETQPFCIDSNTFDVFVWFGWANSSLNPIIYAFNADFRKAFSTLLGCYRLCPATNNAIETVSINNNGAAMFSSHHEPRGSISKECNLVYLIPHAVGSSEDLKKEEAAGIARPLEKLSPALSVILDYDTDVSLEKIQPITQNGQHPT
Histamine H2 receptor, sequence (P25021 whole entry): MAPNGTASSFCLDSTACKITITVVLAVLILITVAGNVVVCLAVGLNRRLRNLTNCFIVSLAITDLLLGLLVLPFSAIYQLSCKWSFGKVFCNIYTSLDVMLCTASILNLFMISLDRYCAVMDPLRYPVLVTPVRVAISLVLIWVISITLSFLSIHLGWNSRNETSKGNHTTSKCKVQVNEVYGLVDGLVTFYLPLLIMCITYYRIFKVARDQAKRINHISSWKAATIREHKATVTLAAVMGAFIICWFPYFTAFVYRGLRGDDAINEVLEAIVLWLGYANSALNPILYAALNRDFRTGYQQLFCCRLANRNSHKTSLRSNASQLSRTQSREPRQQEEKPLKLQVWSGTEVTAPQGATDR
5-hydroxytryptamine receptor 2A, sequence (P28223 whole entry): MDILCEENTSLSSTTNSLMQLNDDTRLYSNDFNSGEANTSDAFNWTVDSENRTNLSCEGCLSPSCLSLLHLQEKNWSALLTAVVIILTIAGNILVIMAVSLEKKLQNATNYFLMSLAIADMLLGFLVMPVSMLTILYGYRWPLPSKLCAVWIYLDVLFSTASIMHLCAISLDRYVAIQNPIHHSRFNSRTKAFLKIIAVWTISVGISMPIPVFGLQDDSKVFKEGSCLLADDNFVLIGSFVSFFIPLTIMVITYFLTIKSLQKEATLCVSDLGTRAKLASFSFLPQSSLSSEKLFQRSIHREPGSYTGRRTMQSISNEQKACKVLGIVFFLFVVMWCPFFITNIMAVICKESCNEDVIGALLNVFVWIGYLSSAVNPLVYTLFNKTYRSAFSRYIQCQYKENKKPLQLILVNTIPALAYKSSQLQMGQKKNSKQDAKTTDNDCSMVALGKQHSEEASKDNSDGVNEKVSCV

The AC50 is the concentration giving half of the maximal activity seen. As for `N[C@@H](Cc1ccc(N(CCCl)CCCl)cc1)C(=O)O`, the AC50 (at Adenosine receptor A3; in [1]) was over 30 µM each time.

Turning to `Cc1cnc(C(=O)O)c[n+]1[O-]` [ACIPIMOX], the AC50 (in [2]; in [3]; at Adenosine receptor A3; in [1]) was over 30 µM throughout.

Consider `Nc1ccc(C(=O)NCC(=O)O)cc1` [AMINOHIPPURIC ACID], for which the half-maximal activity concentration (AC50) (in [2]; in [3]; at Adenosine receptor A3; in [1]) was over 30 µM throughout.

Turning to `C[C@H]1C[C@H]2[C@@H]3CCC4=CC(=O)C=C[C@]4(C)[C@@]3(F)[C@@H](O)C[C@]2(C)[C@@]1(O)C(=O)CO` [BETAMETHASONE], the AC50 (on Adenosine receptor A3; in experiment [1]) was over 30 µM in each case.

With `O=c1[nH]c(=O)n([C@H]2C[C@H](O)[C@@H](CO)O2)cc1/C=C/Br` [BRIVUDINE], the AC50 (in experiment [2]; in experiment [3]; on Adenosine receptor A3; in experiment [1]) was over 30 µM in each case.

As to `Nc1ccn(C[C@@H](CO)OCP(=O)(O)O)c(=O)n1` [CIDOFOVIR], the half-maximal activity concentration (AC50) (in experiment [2]; in [3]; on Adenosine receptor A3; in experiment [1]) was over 30 µM each time.

In the case of `CC(=O)OCC(=O)[C@@]1(OC(C)=O)[C@@H](C)C[C@H]2[C@@H]3C[C@H](F)C4=CC(=O)C=C[C@]4(C)[C@@]3(F)[C@@H](O)C[C@@]21C` [DIFLORASONE DIACETATE], the AC50 (at Adenosine receptor A3; in experiment [1]) was over 30 µM each time.

With `CCCCC(=O)O[C@H]1CC[C@H]2[C@@H]3CCc4cc(O)ccc4[C@H]3CC[C@]12C` [ESTRADIOL VALERATE], the concentration at half-maximal activity (AC50) was over 30 µM in experiment [2], 23.1 µM in experiment [3], 6.74 µM on Adenosine receptor A3 and over 10 µM in experiment [1].

As for `CCn1c(=O)c2c(nc(/C=C/c3ccc(OC)c(OC)c3)n2C)n(CC)c1=O` [ISTRADEFYLLINE], the AC50 was over 30 µM in experiment [2]; over 30 µM in [3]; over 10 µM on Adenosine receptor A3; over 30 µM in experiment [4]; over 30 µM in experiment [5]; over 30 µM in experiment [1].

Regarding `Cc1ccc(Cl)c(Nc2ccccc2C(=O)O)c1Cl` [MECLOFENAMIC ACID], the AC50 is 29.6 µM on Adenosine receptor A3 and over 3 µM in experiment [1].

For `CN1CCCC(CC2c3ccccc3Sc3ccccc32)C1` (configuration not stated) [METHIXENE], the AC50 in [2] is over 30 µM; in [3], 0.0109 µM; on Adenosine receptor A3, over 30 µM; in experiment [1] it was over 30 µM.

In the case of `CC(=O)OCC(=O)[C@@]1(O)CC[C@H]2[C@@H]3C[C@H](C)C4=CC(=O)C=C[C@]4(C)[C@H]3[C@@H](O)C[C@@]21C` [METHYLPREDNISOLONE ACETATE], the AC50 (in [2]; in experiment [3]; on Adenosine receptor A3; in experiment [6]) was over 30 µM each time.

Turning to `NC(=O)N/N=C/c1ccc([N+](=O)[O-])o1` [NITROFURAZONE], the half-maximal activity concentration (AC50) (in experiment [2]; in [3]; at Adenosine receptor A3; in experiment [6]; in experiment [1]) was over 30 µM in each case.

As to `C#C[C@]1(OC(C)=O)CC[C@H]2[C@@H]3CCC4=CC(=O)CC[C@@H]4[C@H]3CC[C@@]21C` [NORETHINDRONE ACETATE], the AC50 on Adenosine receptor A3 was 0.838 µM; in experiment [1], over 10 µM.

As for `O=C1Nc2ccccc2C1(c1ccc(O)cc1)c1ccc(O)cc1` [OXYPHENISATINE], the AC50 is over 30 µM in experiment [2], over 30 µM in experiment [3], 5.01 µM on Adenosine receptor A3 and over 30 µM in [6].

Regarding `Cc1c(C(C)C)c(=O)n(-c2ccccc2)n1C` [PROPYPHENAZONE], the AC50 in [2] was over 30 µM; in [3], over 30 µM; at Adenosine receptor A3 it was 21.9 µM; in [1] it was over 30 µM.

With `Cc1ncc(CO)c(CO)c1O` [PYRIDOXINE], the AC50 (in [2]; in experiment [3]; at Adenosine receptor A3; in experiment [6]; in experiment [1]) was over 30 µM in each case.

Regarding `CNC(=O)c1cnn(-c2nc(N)c3ncn([C@@H]4O[C@H](CO)[C@@H](O)[C@H]4O)c3n2)c1` [REGADENOSON ANHYDROUS], the AC50 in experiment [2] is over 30 µM; in experiment [3], over 30 µM; at Adenosine receptor A3, 0.481 µM; in experiment [6], over 30 µM.

Regarding `C[C@@H]1CN(c2c(F)c(N)c3c(=O)c(C(=O)O)cn(C4CC4)c3c2F)C[C@H](C)N1` [SPARFLOXACIN], the AC50 (at Adenosine receptor A3; in [1]) was over 30 µM in each case.

Take `COc1ncnc(NS(=O)(=O)c2ccc(N)cc2)c1OC` [SULFADOXINE]: the AC50 (at Adenosine receptor A3; in [6]; in experiment [1]) was over 30 µM throughout.

As for `CC1(C)CCC(C)(C)c2cc(NC(=O)c3ccc(C(=O)O)cc3)ccc21` [TAMIBAROTENE], the AC50 in [2] was over 30 µM; in [3], over 10 µM; on Adenosine receptor A3, 29.8 µM; in [6], over 30 µM.

With `CC(C)N1CCN(c2ccc(OCC3COC(Cn4cncn4)(c4ccc(Cl)cc4Cl)O3)cc2)CC1` (configuration not stated) [TERCONAZOLE], the AC50 (on Adenosine receptor A3; in experiment [1]) was over 30 µM throughout.

In the case of `Cc1ccc(O)c([C@H](CCN(C(C)C)C(C)C)c2ccccc2)c1` [TOLTERODINE], the AC50 on D(1A) dopamine receptor is over 10 µM; in experiment [2] it was over 30 µM; in [3] it was 0.0206 µM; in [5] it was over 10 µM; in experiment [7] it was over 10 µM; in [6] it was over 30 µM. For the same compound, the AC50 is over 10 µM in experiment [8], over 30 µM in experiment [1] and over 10 µM on Histamine H2 receptor.

`COc1cc(C[C@@H]2NCCc3cc(O)c(O)cc32)cc(OC)c1OC` [TRETOQUINOL]: the concentration at half-maximal activity (AC50) (in [2]; in experiment [3]; on Adenosine receptor A3; in experiment [1]) was over 30 µM each time.

On to `CCOC1O[C@H]([C@@H](COCc2ccccc2)OCc2ccccc2)[C@H](OCc2ccccc2)[C@H]1O` (some centres not stated) [TRIBENOSIDE], for which the half-maximal activity concentration (AC50) in experiment [2] was over 30 µM; in experiment [3], 8.21 µM; at Adenosine receptor A3, 14 µM; in [6], over 30 µM.

Consider `NS(=O)(=O)c1cc2c(cc1Cl)NC(C(Cl)Cl)NS2(=O)=O` (configuration not stated) [TRICHLORMETHIAZIDE], for which the AC50 (on Adenosine receptor A3; in experiment [1]) was over 30 µM in each case.

For the compound `CC(CN(C)C)CN1c2ccccc2CCc2ccccc21` (configuration not stated) [TRIMIPRAMINE], the concentration at half-maximal activity (AC50) (on Adenosine receptor A3; in experiment [1]) was over 30 µM throughout.

For `N[C@@H](Cc1ccc(O)cc1)C(=O)O` [TYROSINE], the AC50 (in experiment [2]; in experiment [3]; at Adenosine receptor A3; in [6]) was over 30 µM in each case.
